# Data published in US9340559B2, “Proteasome inhibitor delanzomib for use in the treatment of lupus” (Cephalon, Inc., priority 2011, dated 2016).
# Legend:
# [1] = tested on: MRL/lpr mice; assay: Spleen plasma cells by flow cytometry, MRL/lpr mice
# [2] = tested on: NZM mice; assay: Serum C3 complement ELISA, NZM mice (Example 2)
# [3] = tested on: NZM mice; assay: Survival, NZM lupus nephritis model, ip dosing (Example 2); format: in vivo, mouse
# [4] = tested on: MRL/lpr mice; assay: Antinuclear antibody (ANA) ELISA (anti-chromatin, anti-Smith Ag, anti-dsDNA IgG), serum of MRL/lpr mice; format: in vivo, mouse
# Source text: For all ANA ELISA assays, values below the limit of detection set by the lowest point along the standard or set by the manufacturer are considered out of range and are not estimated, but assumed the lowest point along the standard curve for that particular assay.
# [5] = tested on: MRL/lpr mice; assay: Urinalysis: total urine protein (proteinuria), MRL/lpr mice; format: in vivo, mouse
# Description: Urine samples are acid precipitated for total protein recovery and analysis. Samples for which enough urine remained are used for Uristix® leukouria analysis. Briefly, a standard protein solution is prepared from normal mouse sera and is used as a standard for mouse urinary protein assay by turbidity. Standard preparation is as follows: 0, 5, 10, 15, 20, 30, 40, and 50 μL of a 4 mg/mL mouse sera standard protein solution as provided in the kit are added in duplicate into two columns. PBS is added to individual wells to adjust the final volume to 50 μL. For urine sample preparation, urine samples are centrifuged at 9880×g for 3 minutes using a tabletop micro-centrifuge. Urine supernatant (1-50 μL) is added in duplicate. PBS is added to adjust the volume to 50 μL total. For the turbidity assay: 25 μL of 0.1 N HCl is added into blank columns and 250 μL of 3% sulfosalicyclic acid into the test columns. The microplate is incubated for 10 minutes at RT and plates are read using an ELISA reader with single beam at 450 nm. For the Uristix® strip assay, strips are laid out and labeled. Twenty microliters of urine are placed onto each test strip square and incubated for at least 30 seconds before the result is recorded. For all total urine analysis plate-based assays, values below the limit of detection set by the lowest point along the standard or set by the manufacturer are considered out of range and are not estimated, but assumed the lowest point along the standard curve for that particular assay.
# [6] = tested on: MRL/lpr mice; assay: Survival / mortality, MRL/lpr mice (Example 1); settings: for EOS survival, true EOS mouse percentage from starting population: vehicle 92
# Description: Six week old lupus-prone, female, MRL/lpr (Jackson Labs, #000485) and non-lupus prone control MRL/MpJ (Jackson Labs, #000486) mice are obtained from Jackson Laboratories (Bar Harbor, Me.) at 6-weeks of age. All mice are maintained on a 24 hour light/dark cycle, with food and water available ad libitum. All experimental animal procedures are approved by and in accordance to the regulations of the Institutional Animal Care and Use Committee (IACUC) of Cephalon, Inc; approved IACUC protocol #03-040 and #03-03-041.
# Due to this impaired tolerance mechanism, a percentage of all T and B cells that enter the periphery have a high likelihood of responding to self protein/tissues and thus initiate autoimmunity early in life. The MRL/lpr model mice develop several chronic inflammatory disease-like symptoms that are characteristic of early and late lupus including the generation of anti-nuclear antibodies, arthritis, dermatological manifestations, immunocomplex-mediated glomerulonephritis leading to proteinuria and eventual death. Lesser characterized phenomenon are CNS and cardiac manifestations, both of which are more common in humans. […] Mortality is higher in the females and occurs around 25 weeks of age, renal disease includes glomerulonephritis, glomerular infiltrates, sclerosis and vasculitis. Both splenomegaly and lymphomegaly associated with dermatitis can also be observed.
# MRL/lpr mice are first randomized, initial bleeds collected, and body weights recorded for baseline measurements (FIG. 1). All mice are individually ear tagged and are monitored throughout the entire experiment (e.g., “Group#-Cage letter-Mouse#”, so “3B5”=Group 3 (G3), cage B, mouse #5). Mice are age-matched and treatment started at 6-8 weeks of age. Cheek bleeds and urine collection continues weekly throughout the experiment. Mice are individually tracked for several parameters including cytokine and ANA levels, proteinuria, body mass, lymphomegaly, general health, and mortality. All parameters are evaluated bi-monthly except mortality which is monitored daily. All groups consist of a minimum of at least 10-12 mice per group. Ex vivo experiments include flow cytometry analyses for plasma cells, serum complement C3 and ANA levels; urine protein and leukocytes, serum cytokine profiling, renal histo pathology, and determination of compound levels (pharmacokinetics (PK)) in the spleen, kidney and plasma. Mice are tracked on an individual basis. For all data, mice are grouped into populations and data graphed as mean±SEM. End-stage readouts are analyzed as described in the MATERIALS AND METHODS section (above) and in FIG. 1.
# Vehicle alone is provided orally twice weekly (p.o.). Both proteasome inhibitors are suspended in the vehicle solution. Bi-monthly bleeds and urine are collected and frozen at […] until assayed. End analyses include kidney histology, splenocyte B-cell Elispots, flow cytometry for B and T cell populations, PD markers, serum cytokines, antibody and complement levels. In addition, urine proteinuria is determined for all animals.
# In group two (G2), COMPOUND A was administered at a dose of 3 mg/kg iv twice weekly. In group three (G3), COMPOUND A was administered at a dose of 10 mg/kg p.o. twice weekly. […] In the new group five (G5), bortezomib was administered at a dose of 0.3 mg/kg iv twice weekly. Dexamethasone was administered at a dose of 1.5 mg/kg/2d (M, W, F) ip. Vehicle was 3% DMSO/10% Solutol/87% PBS. In those instances in which mice could not be injected via the iv route, agents were administered ip as noted in Table 1.
# [7] = tested on: NZM mice; assay: Urinalysis: total urine protein (proteinuria), NZM mice (Example 2); format: in vivo, mouse
compound,measurement,setting,value
"CC(C)C[C@H](NC(=O)[C@@H](NC(=O)c1cccc(-c2ccccc2)n1)[C@@H](C)O)B(O)O [COMPOUND A, [(1R)-1-[[(2S,3R)-3-hydroxy-2-[6-phenyl-pyridine-2-carbonyl)amino]-1-oxobutyl]amino]-3-methylbutylboronic acid]","EOS plasma cells, percent change vs vehicle","[1]; G1: 3 mg/kg iv, 1× wk",−67%
same,"EOS plasma cells, percent change vs vehicle","[1]; G2: 3 mg/kg iv, 2× wk",−67%
same,"EOS plasma cells, percent change vs vehicle","[1]; G3: 10 mg/kg po, 2× wk",−67%
same,spleen plasma cells decrease vs vehicle,[1]; Groups 1-3 (each),67%
same,"p, serum C3 complement levels vs G6 Bortezomib 0.3 mg/kg 2× wk ip",[2]; G1 3 mg/kg 1× wk ip,p < 0.01
same,"p, serum C3 complement levels vs G7 CTX 50 mg/kg 1× wk ip",[2]; G1 3 mg/kg 1× wk ip,p < 0.001
same,"p, serum C3 complement levels vs G9 Vehicle 2× wk po",[2]; G1 3 mg/kg 1× wk ip,p < 0.05
same,"Serum C3 complement AUC, percent change vs vehicle","[2]; G1 3 mg/kg ip, 1× wk",45%
same,"p, serum C3 complement levels vs G7 CTX 50 mg/kg 1× wk ip",[2]; G2 3 mg/kg 2× wk ip,p < 0.05
same,"Serum C3 complement AUC, percent change vs vehicle","[2]; G2 3 mg/kg ip, 2× wk",32%
same,serum C3 increase above vehicle,[2]; once weekly,45%
same,animals remaining at the end of the study (day 310),"[3]; COMPOUND A treatment groups, vehicle 45%",100%
same,"EOS survival, percent live mice from original number","[3]; G1 3 mg/kg ip, 1× wk",100%
same,survival increase relative to vehicle,[3]; G1: 3 mg/kg ip once per week,55%
same,"EOS survival, percent live mice from original number","[3]; G2 3 mg/kg ip, 2× wk",91%
same,survival increase relative to vehicle,[3]; G2: 3 mg/kg ip twice weekly,46%
same,mice still alive at day 56,[3]; both treatment groups of the substance,100%
same,"ANA AUC Smith Ag, percent change vs vehicle","[4]; G1: 3 mg/kg iv, 1× wk",−96%
same,"ANA AUC chromatin, percent change vs vehicle","[4]; G1: 3 mg/kg iv, 1× wk",−94%
same,"ANA AUC dsDNA, percent change vs vehicle","[4]; G1: 3 mg/kg iv, 1× wk",−91%
same,"ANA AUC Smith Ag, percent change vs vehicle","[4]; G2: 3 mg/kg iv, 2× wk",−96%
same,"ANA AUC chromatin, percent change vs vehicle","[4]; G2: 3 mg/kg iv, 2× wk",−94%
same,"ANA AUC dsDNA, percent change vs vehicle","[4]; G2: 3 mg/kg iv, 2× wk",−95%
same,"ANA AUC Smith Ag, percent change vs vehicle","[4]; G3: 10 mg/kg po, 2× wk",−94%
same,"ANA AUC chromatin, percent change vs vehicle","[4]; G3: 10 mg/kg po, 2× wk",−91%
same,"ANA AUC dsDNA, percent change vs vehicle","[4]; G3: 10 mg/kg po, 2× wk",−37%
same,anti-Smith Ag IgG ANA level decrease vs vehicle at EOS,[4]; Group 1,97%
same,anti-chromatin IgG level reduction vs vehicle,[4]; Group 1,89%
same,anti-dsDNA IgG ANA decrease vs vehicle,[4]; Group 1 (iv),80%
same,anti-Smith Ag IgG ANA level decrease vs vehicle at EOS,[4]; Group 2,100%
same,anti-chromatin IgG level reduction vs vehicle,[4]; Group 2,98%
same,anti-dsDNA IgG ANA decrease vs vehicle,[4]; Group 2 (iv),84%
same,anti-Smith Ag IgG ANA level decrease vs vehicle at EOS,[4]; Group 3,86%
same,anti-chromatin IgG level reduction vs vehicle,[4]; Group 3,79%
same,"Urine AUC proteinuria, percent change vs vehicle","[5]; G1: 3 mg/kg iv, 1× wk",−60%
same,"Urine AUC proteinuria, percent change vs vehicle","[5]; G2: 3 mg/kg iv, 2× wk",−70%
same,"Urine AUC proteinuria, percent change vs vehicle","[5]; G3: 10 mg/kg po, 2× wk",−71%
same,total urine protein reduction relative to vehicle,[5]; Group 1,60%
same,total urine protein reduction relative to vehicle,[5]; Group 2,70%
same,total urine protein reduction relative to vehicle,[5]; Group 3,71%
same,increase in survival over that of vehicle,[6]; 0.3 mg/kg iv twice weekly regimen (so in the source),8.4%
same,increase in survival over that of vehicle,[6]; 0.3 mg/kg once weekly regimen (so in the source),5%
same,increase in survival over that of vehicle,"[6]; 10 mg/kg oral, twice weekly regimen",8.4%
same,"EOS survival, true EOS mouse percentage from starting population","[6]; G1: 3 mg/kg iv, 1× wk",87%
same,"EOS survival, true EOS mouse percentage from starting population","[6]; G2: 3 mg/kg iv, 2× wk",100%
same,"EOS survival, true EOS mouse percentage from starting population","[6]; G3: 10 mg/kg po, 2× wk",100%
same,animal mortality (mice dead out of total),"[6]; initial G1 dose 4 mg/kg iv once weekly, at day 71",4 out of 15
same,"Urine proteinuria AUC, percent change vs vehicle","[7]; G1 3 mg/kg ip, 1× wk",−61%
same,"Urine proteinuria AUC, percent change vs vehicle","[7]; G2 3 mg/kg ip, 2× wk",−72%
same,proteinuria reduction compared to vehicle,[7]; Group 1: 3 mg/kg ip once per week,61%
same,proteinuria reduction compared to vehicle,[7]; Group 2: 3 mg/kg ip twice weekly,72%
